Reference: patent publication US8222294B2, “Combinations of an anti emetic agent and an enkephalinase inhibitor” (Bioproject, priority 2004, dated 2012)
Entries after “also recorded” stand apart in the source; their conditions may differ. Where two headings read alike, the source gives them in different places.

Columns and labels:
[1] = tested on: castor oil-induced diarrhoea; assay: castor oil-induced diarrhoea in rats; format: in vivo
Protocol: The outstanding activity of the combinations of the invention was evidenced on an animal model of experimental diarrhoea. A combination of the invention was evaluated on the castor oil-induced diarrhoea in rats, according to Niemegeers et al. ([…]. (Drug Res), 1974, 24 No. 10). Rats received ondansetron (0.1 mg/kg, p.o.) and racecadotril (40 mg/kg, p.o.) administered together. […] As comparative examples, ondansetron and racecadotril were also administered alone at the same dosages.

[2] = tested on: L.P.S. typhimurium-induced diarrhoea; assay: L.P.S. typhimurium-induced diarrhoea; format: in vivo; settings: dexecadotril 0.1 mg/kg alone
[3] = tested on: abdominal pain (abdominal cramps elicited by rectal distention); assay: abdominal cramps elicited by rectal distention in trinitrobenzenesulfonic acid-pretreated rats; format: in vivo; settings: administered alone
Source text: The combinations of the invention involve a synergy against abdominal pain as the authors of the present invention have discovered using a classical model of abdominal pain in rodents (Morteau et al., Gastroenterology, 1993, 104, 47). Rats were […] trinitrobenzenesulfonic acid to induce intestinal inflammation and pain sensitivity, as assessed by evaluation of the abdominal cramps elicited by rectal distention.

[4] = tested on: cytochrome P 450 subtypes; assay: interaction with cytochrome P 450 subtypes; format: in vitro ADME
drug metabolism pathway = format: in vitro ADME; settings: enkephalinase inhibitors
E. coli toxins = settings: cited from earlier work
[5] = in vivo; cited from earlier work
[6] = 5-HT3 receptor inhibitors; cited from earlier work
Salmonella = settings: cited from earlier work
gastroenteritis = settings: cited from earlier work
colonic transit = colonic transit in rodents; format: in vivo; settings: enkephalinase inhibitor alone
Source text: This effect is blocked by co-administration of ondansetron. Since the transit is already strongly accelerated in gastroenteritis, the combinations of the present invention allow the antisecretory pro-absorptive activity of enkephalinase inhibitors to be exerted for a longer time upon the watery intestinal lumen content, thus resulting in a synergic antidiarrheal effect.

abdominal cramps = settings: via protection of endogenous opioid peptides; cited from earlier work
[7] = racecadotril 40 mg/kg p.o. alone

| Structure (SMILES) | antidiarrheal activity ([1]; dexecadotril 0.1 mg/kg alone) | antidiarrheal activity [2] | prevention of pain manifestations [3] | interaction with cytochrome P 450 subtypes [4] | metabolism pathway (drug metabolism pathway) | antisecretory activity (E. coli toxins) | plasma half-life [5] [h] | metabolism pathway [6] | antidiarrheal activity ([1]; ondansetron 0.1 mg/kg p.o. alone) | antidiarrheal activity ([1]; ondansetron 1 mg/kg alone) | prevention of hypersecretion (Salmonella) | diarrhoea (gastroenteritis) | emesis (gastroenteritis; particularly in children) | duration of protection [1, 7] [h] | protection against diarrhoea [1, 7] | effect on colonic transit (colonic transit) | abdominal pain (gastroenteritis) | antinociceptive effect (abdominal cramps) |
| --- | --- | --- | --- | --- | --- | --- | --- | --- | --- | --- | --- | --- | --- | --- | --- | --- | --- | --- |
| CC(=O)SC[C@H](Cc1ccccc1)C(=O)NCC(=O)OCc1ccccc1 [dexecadotril] | an antidiarrheal activity; also recorded: only partially inactive | an antidiarrheal activity | partially prevent | do not significantly interact | mainly occurs via S-methylation | active |  |  |  |  |  |  |  |  |  |  |  |  |
| CN1C2CCCC1CC(NC(=O)c1nn(C)c3ccccc13)C2 (stereo not drawn) [granisetron] |  |  |  |  |  |  | ~3 | oxidation by various cytochrome P 450 subtypes |  |  |  |  |  |  |  |  |  |  |
| Cc1nccn1CC1CCc2c(c3ccccc3n2C)C1=O (stereo not drawn) [ondansetron] |  |  | partially prevent |  |  | not | ~3 | oxidation by various cytochrome P 450 subtypes | inactive | inactive | prevents the hypersecretion | not significantly affected or even increased; also recorded: fail to affect diarrhoea; also recorded: increase its duration | significantly reduced |  |  |  |  |  |
| CC(=O)SCC(Cc1ccccc1)C(=O)NCC(=O)OCc1ccccc1 (stereo not drawn) [racecadotril] |  |  | partially prevent | do not significantly interact | mainly occurs via S-methylation | active | ~3 |  |  |  |  |  |  | 4 | partial protection | tend to accelerate colonic transit | significantly diminished | partial antinociceptive effect |
